Laboratory results reported in US4579822A (priority 1983, dated 1986).

Legend:
DHAK (II) [1] = test: Substrate specificity of DHAK (II); assay type: biochemical, Schizosaccharomyces pombe IFO 0354; details: for Relative activity DHAK (II) (substrate): each substrate 1.0 mM, pH 7.5, 25° C., DHA = 100%
Experimental: (§1) The reaction mixture for measuring the substrate specificity of DHAK consists of 1.0 ml of 0.1M triethanolamine-HCl buffer (pH 7.5), 2.5 mM ATP, 4 mM MgSO4, 0.2 mM NADH, 1.3 mM phosphoenolpyruvate, 6 units of pyruvate kinase, 6 units of lactate dehydrogenase (Boehringer Mannheim GmbH), 0.01 ml of enzyme solution and each substrate (1.0 mM) as shown in Table 1. The reaction is started by adding enzyme solution and measured the decrease in the absorbance at 340 nm at 25° C. The above reaction is represented by the following equations: [drawing 4]

DHAK (I) [2] = biological target: T1, DHAK (I) (Schizosaccharomyces pombe, UniProt O13902); test: Substrate specificity of DHAK (I); assay type: biochemical, Schizosaccharomyces pombe IFO 0354; details: pH 7.5; read-out: Relative activity DHAK (I) (substrate)
T1 construct: DHAK (I) and DHAK (II) obtained from Schizosaccharomyces pombe IFO 0354; made in house; host or cells: Schizosaccharomyces pombe IFO 0354 (natural producer, not recombinant); cell extract, DEAE-Sepharose fraction at 0.12 M KCl, then Blue-Sepharose
T1 sequence (O13902 1-580): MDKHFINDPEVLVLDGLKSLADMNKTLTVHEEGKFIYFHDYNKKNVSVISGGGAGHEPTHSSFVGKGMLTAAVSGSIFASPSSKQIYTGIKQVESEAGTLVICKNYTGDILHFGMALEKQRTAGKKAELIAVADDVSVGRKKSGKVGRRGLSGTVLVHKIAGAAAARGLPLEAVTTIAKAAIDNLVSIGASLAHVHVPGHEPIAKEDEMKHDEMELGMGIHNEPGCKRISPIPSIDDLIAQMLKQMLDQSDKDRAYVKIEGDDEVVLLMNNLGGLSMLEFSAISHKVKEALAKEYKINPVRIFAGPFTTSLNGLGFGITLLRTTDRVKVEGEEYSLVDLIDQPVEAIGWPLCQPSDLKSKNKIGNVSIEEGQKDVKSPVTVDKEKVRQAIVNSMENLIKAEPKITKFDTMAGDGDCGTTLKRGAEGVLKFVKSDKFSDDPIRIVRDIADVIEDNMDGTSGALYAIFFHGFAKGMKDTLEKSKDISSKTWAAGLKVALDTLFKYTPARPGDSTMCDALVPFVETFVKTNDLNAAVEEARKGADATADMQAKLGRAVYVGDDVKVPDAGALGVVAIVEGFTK
Experimental: as §1

DHAK (II) [3] = biological target: T2, DHAK (II) (Schizosaccharomyces pombe, UniProt O74215); test: Specificity of DHAK (II) for phosphate donor; assay type: biochemical, Schizosaccharomyces pombe IFO 0354; details: Adenosine 5'-triphosphate = 100%
T2 construct: DHAK (I) and DHAK (II) obtained from Schizosaccharomyces pombe IFO 0354; made in house; host or cells: Schizosaccharomyces pombe IFO 0354 (natural producer, not recombinant); cell extract, DEAE-Sepharose fraction at 0.16 M KCl, then Blue-Sepharose
T2 sequence (O74215 1-591): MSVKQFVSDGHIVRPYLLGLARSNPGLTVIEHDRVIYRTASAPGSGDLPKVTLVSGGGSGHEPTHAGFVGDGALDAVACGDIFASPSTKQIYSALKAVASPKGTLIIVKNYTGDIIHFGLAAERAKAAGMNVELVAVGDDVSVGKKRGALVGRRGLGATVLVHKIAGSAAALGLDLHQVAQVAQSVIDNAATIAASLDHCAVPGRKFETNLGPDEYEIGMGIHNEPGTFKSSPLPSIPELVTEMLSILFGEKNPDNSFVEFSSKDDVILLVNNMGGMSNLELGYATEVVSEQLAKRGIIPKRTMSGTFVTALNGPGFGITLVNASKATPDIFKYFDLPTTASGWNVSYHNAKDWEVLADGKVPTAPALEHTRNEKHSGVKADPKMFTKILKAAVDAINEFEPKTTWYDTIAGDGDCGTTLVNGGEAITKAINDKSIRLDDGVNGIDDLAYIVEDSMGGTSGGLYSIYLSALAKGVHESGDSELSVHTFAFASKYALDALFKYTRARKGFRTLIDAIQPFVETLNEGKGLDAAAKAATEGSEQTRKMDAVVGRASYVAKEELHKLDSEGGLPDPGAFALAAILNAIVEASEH
Experimental: (§2) The reaction is started by adding enzyme solution, and the decrease of the absorbance at 340 nm is measured spectrophotometrically at 25° C. In the blank assay, DHA is excluded from the reaction mixture. One unit of the enzyme activity is defined as the amount of enzyme which catalyzes the formation of 1 μmol NAD^+ in one minute under the above conditions. The above reaction is represented by the following equations: [drawing 3]

DHAK (I) [4] = biological target: T1, DHAK (I); test: Specificity of DHAK (I) for phosphate donor; assay type: biochemical, Schizosaccharomyces pombe IFO 0354; details: Adenosine 5'-triphosphate = 100%
Experimental: as §2

DHAK (I) [5] = biological target: T1, DHAK (I); test: Specificity of DHAK (I) for divalent metal cations; assay type: biochemical, Schizosaccharomyces pombe IFO 0354; details: for Relative activity DHAK (I) (metal cation): each divalent metal cation 4 mM, MgSO4 = 100%
Experimental: as §2
(§3) Each divalent metal cation (4 mM) was added to the reaction mixture and the activity of the enzyme was measured.

DHAK (II) [6] = biological target: T2, DHAK (II); test: Specificity of DHAK (II) for divalent metal cations; assay type: biochemical, Schizosaccharomyces pombe IFO 0354; details: for Relative activity DHAK (II) (metal cation): each divalent metal cation 4 mM, MgSO4 = 100%
Experimental: as §2, §3

[7] = substrate: O=C(CO)CO; test: purified protein, by the assay type; details: other: pH 7.5, 25° C.
[8] = substrate: Nc1ncnc2c1ncn2[C@@H]1O[C@H](COP(=O)(O)OP(=O)(O)OP(=O)(O)O)[C@@H](O)[C@H]1O; test: Km values of DHAK (I) for substrates and coenzyme; assay type: biochemical, Schizosaccharomyces pombe IFO 0354; details: other: pH 7.5, 25° C.
[9] = substrate: O=CC(O)CO; test: Km values of DHAK (I) for substrates and coenzyme; assay type: biochemical, Schizosaccharomyces pombe IFO 0354; details: other: pH 7.5, 25° C.
[10] = substrate: Nc1ncnc2c1ncn2[C@@H]1O[C@H](COP(=O)(O)OP(=O)(O)OP(=O)(O)O)[C@@H](O)[C@H]1O; test: Km values of DHAK (II) for substrates and coenzyme; assay type: biochemical, Schizosaccharomyces pombe IFO 0354; details: other: pH 7.5, 25° C.
[11] = substrate: O=C(CO)CO; test: Km values of DHAK (II) for substrates and coenzyme; assay type: biochemical, Schizosaccharomyces pombe IFO 0354; details: other: pH 7.5, 25° C.
[12] = substrate: O=CC(O)CO; test: Km values of DHAK (II) for substrates and coenzyme; assay type: biochemical, Schizosaccharomyces pombe IFO 0354; details: other: pH 7.5, 25° C.
[13] = concentration in the reaction mixture

O=C(CO)CO [DHA, dihydroxyacetone]
Relative activity DHAK (II) (substrate) (DHAK (II) [1]): 100%
Action of DHAK (II) on substrate (in words) (DHAK (II) [1]; summary of Table 1): act on
activity at 1000 µM (DHAK (I) [2]): 100%

O=P(O)(O)OCC(O)CO (stereo not shown) [Glycerol-3-phosphate]
Relative activity DHAK (II) (substrate) (DHAK (II) [1]): 0%
activity at 1000 µM (DHAK (I) [2]): 0%

OCC(O)CO [Glycerol]
Relative activity DHAK (II) (substrate) (DHAK (II) [1]): 0%
activity at 1000 µM (DHAK (I) [2]): 0%

Nc1nc2c(ncn2[C@@H]2O[C@H](COP(=O)(O)OP(=O)(O)OP(=O)(O)O)[C@@H](O)[C@H]2O)c(=O)[nH]1 [Guanosine 5'-triphosphate]
Relative activity DHAK (II) (phosphate donor) (DHAK (II) [3]): 0%
Relative activity DHAK (I) (phosphate donor) (DHAK (I) [4]): 0%

O=P(O)(O)OP(=O)(O)OP(=O)(O)OC[C@H]1O[C@@H](n2cnc3c(O)ncnc32)[C@H](O)[C@@H]1O [Inosine 5'-triphosphate]
Relative activity DHAK (II) (phosphate donor) (DHAK (II) [3]): 0%
Relative activity DHAK (I) (phosphate donor) (DHAK (I) [4]): 0%

O=S(=O)([O-])[O-].[Mg+2] [MgSO4]
Mg^2+ concentration giving sufficient activity of DHAK (I) (DHAK (I) [5]; [13]): ≥ 4 mM
Relative activity DHAK (I) (metal cation) (DHAK (I) [5]): 100%
Metal cation ranking for DHAK (II) (in words) (DHAK (II) [6]; cation 4 mM, summary of Table 3): maximum activity
Mg^2+ concentration giving sufficient activity of DHAK (II) (DHAK (II) [6]; [13]): ≥ 4 mM
Relative activity DHAK (II) (metal cation) (DHAK (II) [6]): 100%

[Cl][Mn][Cl] [MnCl2]
Relative activity DHAK (I) (metal cation) (DHAK (I) [5]): 15%
Relative activity DHAK (II) (metal cation) (DHAK (II) [6]): 9%

[Cl][Ni][Cl] [NiCl2]
Relative activity DHAK (I) (metal cation) (DHAK (I) [5]): 0%
Relative activity DHAK (II) (metal cation) (DHAK (II) [6]): 0%

O=c1ccn([C@@H]2O[C@H](COP(=O)(O)OP(=O)(O)OP(=O)(O)O)[C@@H](O)[C@H]2O)c(=O)[nH]1 [Uridine 5'-triphosphate]
Relative activity DHAK (II) (phosphate donor) (DHAK (II) [3]): 3.6%
Relative activity DHAK (I) (phosphate donor) (DHAK (I) [4]): 3.9%

B1: DHAK (I) (Schizosaccharomyces pombe 972h-) (protein)
chain: MDKHFINDPEVLVLDGLKSLADMNKTLTVHEEGKFIYFHDYNKKNVSVISGGGAGHEPTHSSFVGKGMLTAAVSGSIFASPSSKQIYTGIKQVESEAGTLVICKNYTGDILHFGMALEKQRTAGKKAELIAVADDVSVGRKKSGKVGRRGLSGTVLVHKIAGAAAARGLPLEAVTTIAKAAIDNLVSIGASLAHVHVPGHEPIAKEDEMKHDEMELGMGIHNEPGCKRISPIPSIDDLIAQMLKQMLDQSDKDRAYVKIEGDDEVVLLMNNLGGLSMLEFSAISHKVKEALAKEYKINPVRIFAGPFTTSLNGLGFGITLLRTTDRVKVEGEEYSLVDLIDQPVEAIGWPLCQPSDLKSKNKIGNVSIEEGQKDVKSPVTVDKEKVRQAIVNSMENLIKAEPKITKFDTMAGDGDCGTTLKRGAEGVLKFVKSDKFSDDPIRIVRDIADVIEDNMDGTSGALYAIFFHGFAKGMKDTLEKSKDISSKTWAAGLKVALDTLFKYTPARPGDSTMCDALVPFVETFVKTNDLNAAVEEARKGADATADMQAKLGRAVYVGDDVKVPDAGALGVVAIVEGFTK
notes: DHAK (I) and DHAK (II) obtained from Schizosaccharomyces pombe IFO 0354; made in house; host or cells: Schizosaccharomyces pombe IFO 0354 (natural producer, not recombinant); cell extract, DEAE-Sepharose fraction at 0.12 M KCl, then Blue-Sepharose
Km [7]: 8.4 µM
Km [8]: 220 µM
Km [9]: 21 µM

B2: DHAK (II) (Schizosaccharomyces pombe 972h-) (protein)
chain: MSVKQFVSDGHIVRPYLLGLARSNPGLTVIEHDRVIYRTASAPGSGDLPKVTLVSGGGSGHEPTHAGFVGDGALDAVACGDIFASPSTKQIYSALKAVASPKGTLIIVKNYTGDIIHFGLAAERAKAAGMNVELVAVGDDVSVGKKRGALVGRRGLGATVLVHKIAGSAAALGLDLHQVAQVAQSVIDNAATIAASLDHCAVPGRKFETNLGPDEYEIGMGIHNEPGTFKSSPLPSIPELVTEMLSILFGEKNPDNSFVEFSSKDDVILLVNNMGGMSNLELGYATEVVSEQLAKRGIIPKRTMSGTFVTALNGPGFGITLVNASKATPDIFKYFDLPTTASGWNVSYHNAKDWEVLADGKVPTAPALEHTRNEKHSGVKADPKMFTKILKAAVDAINEFEPKTTWYDTIAGDGDCGTTLVNGGEAITKAINDKSIRLDDGVNGIDDLAYIVEDSMGGTSGGLYSIYLSALAKGVHESGDSELSVHTFAFASKYALDALFKYTRARKGFRTLIDAIQPFVETLNEGKGLDAAAKAATEGSEQTRKMDAVVGRASYVAKEELHKLDSEGGLPDPGAFALAAILNAIVEASEH
notes: DHAK (I) and DHAK (II) obtained from Schizosaccharomyces pombe IFO 0354; made in house; host or cells: Schizosaccharomyces pombe IFO 0354 (natural producer, not recombinant); cell extract, DEAE-Sepharose fraction at 0.16 M KCl, then Blue-Sepharose
Km [10]: 910 µM
Km [11]: 20 µM
Km [12]: 32 µM
